The values below come from ChEMBL document CHEMBL5385972, “New azole derivatives linked to indole/indoline moieties combined with FLC against drug-resistant Candida albicans” (2024).

The structures appear in SMILES notation. Converted amounts (≈) assume the structure as drawn. The source made the active and inactive calls. The rule behind the calls is not given here.

Experiment [1] concerns Candida albicans. Description: Antifungal activity against Candida albicans SC5314 assessed as inhibition of fungal growth incubated for 24 hrs by microdilution assay. It counts as functional.
Experiment [2] concerns Candida albicans. Description: Synergistic antifungal activity against Candida albicans SC5314 assessed as inhibition of fungal growth incubated for 24 hrs in presence of fluconazole by microdilution assay. The class given is functional. In general terms: Broth dilution looks for growth in wells or tubes with falling amounts of substance.
Experiment [3] relates to Candida albicans. Description: Synergistic antifungal activity against FLC-resistant Candida albicans SC5314 assessed as inhibition of fungal growth incubated for 24 hrs in presence of fluconazole by microdilution assay. It counts as functional.
The subject of experiment [4] is Candida albicans. Nature of the experiment: Synergistic antifungal activity against Candida albicans SC5314 assessed as fractional inhibitory concentration index incubated for 24 hrs in presence of fluconazole by microdilution assay. The class given is functional.
Experiment [5] relates to Candida albicans. Nature of the experiment: Synergistic antifungal activity against FLC-resistant Candida albicans SC5314 assessed as fractional inhibitory concentration index incubated for 24 hrs in presence of fluconazole by microdilution assay. The class given is functional.
The test system of experiment [6] is Candida albicans. Nature of the experiment: Antifungal activity against FLC-resistant Candida albicans SC5314 assessed as inhibition of fungal growth at 3 to 9 ug/ml incubated for 48 hrs by time-kill assay. The conditions noted are these: dose 3-9 µg/ml. The class given is functional, organism-based.
In experiment [7] the test system is Candida albicans. Nature of the experiment: Synergistic antifungal activity against FLC-resistant Candida albicans SC5314 assessed as inhibition of fungal growth incubated for 48 hrs in presence of fluconazole by time-kill assay. It counts as functional, organism-based.
Experiment [8] deals with Candida albicans. Description: Antifungal activity against Candida albicans SC5314 assessed as inhibition of fungal growth at 3 to 9 ug/ml incubated for 24 hrs by crystal violet staining based inverted microscopic analysis. It counts as functional, organism-based. The conditions noted are these: dose 3-9 µg/ml.
In experiment [9] the test system is Candida albicans. Description: Antifungal activity against Candida albicans SC5314 assessed as decrease in mycelial growth at 3 to 9 ug/ml incubated for 24 hrs by crystal violet staining based inverted microscopic analysis. The class given is functional, organism-based. The conditions noted are these: dose 3-9 µg/ml.
The test system of experiment [10] is Cell membrane. Nature of the experiment: Induction of […] membrane permeabilization in Candida albicans SC5314 by measuring red fluorescence at 3 to 9 ug/ml incubated for 16 to 24 hrs by propyl iodide dye based fluorescence microscopic analysis. The class given is subcellular. The conditions noted are these: dose 3-9 µg/ml, time 16-24 hrs.
The subject of experiment [11] is Cell membrane. Description: Induction of […] membrane permeabilization in Candida albicans SC5314 by measuring red fluorescence incubated for 16 to 24 hrs in presence of fluconazole by propyl iodide dye based fluorescence microscopic analysis. It counts as subcellular. As to conditions: time 16-24 hrs.
Experiment [12] concerns Candida albicans. Description: Antifungal activity against Candida albicans SC5314 assessed as morphological change at 3 to 9 ug/ml incubated for 24 hrs by transmission electron microscopic analysis. The class given is functional, organism-based. The conditions noted are these: dose 3-9 µg/ml.
Experiment [13] relates to Candida albicans. Description: Synergistic antifungal activity against Candida albicans SC5314 assessed as leakage of intracellular debris incubated for 24 hrs in presence of fluconazole by transmission electron microscopic analysis. The class given is functional, organism-based.
Experiment [14] deals with Candida albicans. Description: Synergistic antifungal activity against Candida albicans SC5314 assessed as appearance of incomplete cell wall structure incubated for 24 hrs in presence of fluconazole by transmission electron microscopic analysis. It counts as functional, organism-based.
Experiment [15] deals with Candida albicans. Nature of the experiment: Synergistic antifungal activity against Candida albicans SC5314 assessed as increase in intracellular ROS production incubated for 16 hrs in presence of fluconazole by DCFH-DA staining based ELISA. The class given is functional, organism-based. (ELISA stands for enzyme-linked immunosorbent assay.)
Experiment [16] relates to Candida albicans. Nature of the experiment: Synergistic antifungal activity against Candida albicans SC5314 assessed as decrease in intracellular mitochondrial membrane potential incubated for 16 hrs in presence of fluconazole by JC-1 staining based fluorescence assay. The class given is functional, organism-based.
Experiment [17] relates to Candida albicans. Description: Inhibition of mitochondrial function in Candida albicans SC5314 assessed as reduction in ATP production at 3 to 9 ug/ml incubated for 16 hrs by chemiluminescence assay. It counts as functional. The conditions noted are these: dose 3-9 µg/ml.
For experiment [18], the system named is Candida albicans. Nature of the experiment: Synergistic antifungal activity against Candida albicans SC5314 assessed as reduction in ATP production incubated for 16 hrs in presence of fluconazole by chemiluminescence assay. It counts as functional, organism-based.
Experiment [19] has as its system Cell membrane. Nature of the experiment: Induction of […] membrane permeabilization in Candida albicans SC5314 by measuring red fluorescence incubated for 16 to 24 hrs in presence of fluconazole by propyl iodide dye based multifunctional microplate reader analysis. The class given is subcellular. As to conditions: time 16-24 hrs.
Experiment [20] has as its system Candida albicans. Nature of the experiment: Antifungal activity against FLC-resistant Candida albicans SC5314 assessed as inhibition of fungal growth incubated for 24 hrs by microdilution assay. The class given is functional.
Experiment [21] relates to Candida albicans. Nature of the experiment: Antifungal activity against FLC-resistant Candida albicans SC5314 assessed as inhibition of fungal growth at 3 ug/ml incubated for 48 hrs by time-kill assay. It counts as functional, organism-based. As to conditions: dose 3.0 µg/ml.
Experiment [22] relates to Cell membrane. Description: Induction of […] membrane permeabilization in Candida albicans SC5314 by measuring red fluorescence at 3 ug/ml incubated for 16 to 24 hrs by propyl iodide dye based fluorescence microscopic analysis. It counts as subcellular. The conditions noted are these: dose 3.0 µg/ml, time 16-24 hrs.
The test system of experiment [23] is Candida albicans. Nature of the experiment: Antifungal activity against Candida albicans SC5314 assessed as morphological change at 3 ug/ml incubated for 24 hrs by transmission electron microscopic analysis. As to conditions: dose 3.0 µg/ml. The class given is functional, organism-based.
For experiment [24], the system named is Candida albicans. Description: Inhibition of mitochondrial function in Candida albicans SC5314 assessed as reduction in ATP production at 3 ug/ml incubated for 16 hrs by chemiluminescence assay. The conditions noted are these: dose 3.0 µg/ml. It counts as functional.

By MIC50 is commonly meant the lowest concentration that inhibits either 50% of growth or 50% of the strains tested, depending on the study. Take `COc1ccc2c(c1)N(CCC(=O)NCCNCC(O)COC(Cn1cncn1)c1ccc(F)cc1F)CC2` (stereo not given): the values for the MIC50 in the experiment on Candida albicans [1], in the experiment on Candida albicans [2] and in the experiment with Candida albicans [3] were > 200 µg/mL, 11.6 µg/mL and 111 µg/mL, respectively. For the same compound, the “fractional inhibitory concentration index (FICI)” value in the experiment on Candida albicans [4] stood at 8.64; in the experiment on Candida albicans [5], 0.56.
For `O=C(CCn1ccc2ccccc21)NCCNCC(O)COC(Cn1cncn1)c1ccc(F)cc1F` (stereo not given) the same measures were > 200 µg/mL, 8.42 µg/mL, 50 µg/mL, 6.26 and 0.25.
Regarding `O=C(CCN1CCc2cc(Br)ccc21)NCCNCC(O)COC(Cn1cncn1)c1ccc(F)cc1F` (stereo not given), the MIC50 in the experiment with Candida albicans [1] was > 200 µg/mL; with Candida albicans [2], 1.14 µg/mL; with Candida albicans [3] it was 2.82 µg/mL. Further, the “fractional inhibitory concentration index (FICI)” value turned out to be 0.85 in the experiment with Candida albicans [4] and 0.01 in the experiment on Candida albicans [5]. Further, the outcome in the experiment with Candida albicans [6], with Candida albicans [8], in the experiment on Candida albicans [9], with Cell membrane [10], in the experiment with Candida albicans [12] and in the experiment on Candida albicans [17] was inactive. The Activity result in the experiment on Candida albicans [7], in the experiment with Cell membrane [11], in the experiment with Candida albicans [13], in the experiment with Candida albicans [14], in the experiment with Candida albicans [15] and in the experiment with Candida albicans [16] was “Dose-Dependent Effect” throughout. Further, the Activity result in the experiment on Candida albicans [18] and in the experiment on Cell membrane [19] was “Dose-Dependent Effect” each time.
For the compound `CC1Cc2ccccc2N1CCC(=O)NCCNCC(O)COC(Cn1cncn1)c1ccc(F)cc1F` (stereo not given), the results for the MIC50 with Candida albicans [1], in the experiment on Candida albicans [2] and with Candida albicans [3] were > 200 µg/mL, 9.22 µg/mL and 67.7 µg/mL, respectively. The “fractional inhibitory concentration index (FICI)” value is 6.85 in the experiment on Candida albicans [4] and 0.34 with Candida albicans [5].
For the compound `O=C(CCN1CCc2ccc(Cl)cc21)NCCNCC(O)COC(Cn1cncn1)c1ccc(F)cc1F` (stereo not given), the MIC50 is > 200 µg/mL in the experiment with Candida albicans [1], 0.35 µg/mL in the experiment with Candida albicans [2] and 9.22 µg/mL in the experiment on Candida albicans [3]. Further, the “fractional inhibitory concentration index (FICI)” value is given as 0.26 in the experiment on Candida albicans [4] and 0.05 with Candida albicans [5].
`Cc1ccc2c(c1)CCN2CCC(=O)NCCNCC(O)COC(Cn1cncn1)c1ccc(F)cc1F` (stereo not given): the MIC50 in the experiment on Candida albicans [1] is > 200 µg/mL; in the experiment with Candida albicans [2] it was 2.03 µg/mL; in the experiment with Candida albicans [3], 10.2 µg/mL. For the same compound, the “fractional inhibitory concentration index (FICI)” value in the experiment with Candida albicans [4] stood at 1.51; with Candida albicans [5], 0.05.
In the case of `OC(Cn1cncn1)(Cn1cncn1)c1ccc(F)cc1F` [FLUCONAZOLE], the MIC50 with Candida albicans [1] is 1.35 µg/mL (≈ 4.41 µM); in the experiment on Candida albicans [20], > 200 µg/mL. Also, the outcome with Candida albicans [21], in the experiment with Cell membrane [22] and in the experiment with Candida albicans [23] was Active. Moreover, in the experiment on Candida albicans [24], the result was inactive.
As to `O=C(CCN1CCc2ccccc21)NCCNCC(O)COC(Cn1cncn1)c1ccc(F)cc1F` (stereo not given), the MIC50 is > 200 µg/mL in the experiment on Candida albicans [1], 5.84 µg/mL with Candida albicans [2] and 42.6 µg/mL in the experiment on Candida albicans [3]. Further, the “fractional inhibitory concentration index (FICI)” value in the experiment with Candida albicans [4] is 4.34; in the experiment on Candida albicans [5] it was 0.21.
In the case of `O=C(CCn1ccc2cc(Cl)ccc21)NCCNCC(O)COC(Cn1cncn1)c1ccc(F)cc1F` (stereo not given), the values for the MIC50 with Candida albicans [1], in the experiment with Candida albicans [2] and in the experiment with Candida albicans [3] were > 200 µg/mL, 0.83 µg/mL and 18.9 µg/mL, respectively. The “fractional inhibitory concentration index (FICI)” value in the experiment on Candida albicans [4] turned out to be 0.62; with Candida albicans [5] it was 0.09.
As for `O=C(CCn1ccc2ccc(F)cc21)NCCNCC(O)COC(Cn1cncn1)c1ccc(F)cc1F` (stereo not given), the MIC50 in the experiment on Candida albicans [1] was > 200 µg/mL; in the experiment with Candida albicans [2], 0.79 µg/mL; with Candida albicans [3] it was 33.9 µg/mL. Further, the “fractional inhibitory concentration index (FICI)” value amounted to 0.59 with Candida albicans [4] and 0.17 in the experiment on Candida albicans [5].
The corresponding values for `O=C(CCN1CCc2cc(Cl)ccc21)NCCNCC(O)COC(Cn1cncn1)c1ccc(F)cc1F` (stereo not given) are > 200 µg/mL, 1.77 µg/mL, 14 µg/mL, 1.31 and 0.07.
Take `O=C(CCn1ccc2cc(Br)ccc21)NCCNCC(O)COC(Cn1cncn1)c1ccc(F)cc1F` (stereo not given): the MIC50 is > 200 µg/mL in the experiment on Candida albicans [1], 0.85 µg/mL in the experiment on Candida albicans [2] and 12.9 µg/mL in the experiment on Candida albicans [3]. Further, the “fractional inhibitory concentration index (FICI)” value with Candida albicans [4] is given as 0.63; in the experiment on Candida albicans [5] it was 0.06.
The corresponding values for `O=C(CCn1ccc2ccc(Cl)cc21)NCCNCC(O)COC(Cn1cncn1)c1ccc(F)cc1F` (stereo not given) are > 200 µg/mL, 0.89 µg/mL, 20 µg/mL, 0.66 and 0.1.
For `O=C(CCN1CCc2ccc(Br)cc21)NCCNCC(O)COC(Cn1cncn1)c1ccc(F)cc1F` (stereo not given) the same measures were > 200 µg/mL, 0.6 µg/mL, 8.92 µg/mL, 0.44 and 0.04.
The corresponding values for `O=C(CCN1CCc2ccc(F)cc21)NCCNCC(O)COC(Cn1cncn1)c1ccc(F)cc1F` (stereo not given) are > 200 µg/mL, 2.68 µg/mL, 18.9 µg/mL, 1.99 and 0.09.
As to `O=C(CCn1ccc2ccc(Br)cc21)NCCNCC(O)COC(Cn1cncn1)c1ccc(F)cc1F` (stereo not given), the values for the MIC50 in the experiment on Candida albicans [1], in the experiment with Candida albicans [2] and in the experiment on Candida albicans [3] were > 200 µg/mL, 0.95 µg/mL and 11.5 µg/mL, respectively. In addition, the figures for the “fractional inhibitory concentration index (FICI)” value in the experiment on Candida albicans [4] and in the experiment with Candida albicans [5] were 0.71 and 0.06, respectively.
For `COc1ccc2ccn(CCC(=O)NCCNCC(O)COC(Cn3cncn3)c3ccc(F)cc3F)c2c1` (stereo not given) the same measures were > 200 µg/mL, 1.87 µg/mL, 52.5 µg/mL, 1.39 and 0.26.
